Here are results for 9 compounds from patent publication US8263603B2, “N3-substituted-N1-sulfonyl-5-fluoropyrimidinone derivatives” (Dow AgroSciences, LLC, priority 2010, dated 2012).

The structures appear in SMILES notation.

For series [1], the system named is Mycosphaerella graminicola; anamorph: Septoria tritici; Bayer code SEPTTR. In words: Fungicidal activity against leaf blotch of wheat, three-day curative (3 DC). In kind it is in vivo. Conditions: Zymoseptoria tritici, 72 h, wheat plants (variety Yuma), rating of % disease control. The method, then: (§1) Evaluation of Fungicidal Activity: Leaf Blotch of Wheat (Mycosphaerella graminicola; anamorph: Septoria tritici; Bayer code […]) Wheat plants (variety Yuma) were grown from seed in a greenhouse in 50% mineral soil/50% soil-less Metro mix until the first leaf was fully emerged, with 7-10 seedlings per pot. These plants were inoculated with an aqueous spore suspension of Septoria tritici either prior to or after fungicide treatments. After inoculation the plants were kept in 100% relative humidity (one day in a dark dew chamber followed by two days in a lighted dew chamber) to permit spores to germinate and infect the leaf. The plants were then transferred to a greenhouse for disease to develop. The following table presents the activity of typical compounds of the present disclosure when evaluated in these experiments. The effectiveness of the test compounds in controlling disease was determined by assessing the severity of disease on treated plants, and then converting the severity to percent control based on the level of disease on untreated, inoculated plants. • In each case of Table II the rating scale is as follows: […]

Series [2] has the same test system. Put plainly: Fungicidal activity against leaf blotch of wheat, one-day protectant (1 DP). The series is classed as in vivo. The conditions noted are these: Zymoseptoria tritici, 24 h, wheat plants (variety Yuma), rating of % disease control. The method, then:
as §1

Consider `COc1ccc(S(=O)(=O)n2cc(F)c(=N)n(Cc3ccccc3)c2=O)cc1` [Compound 5, 3-benzyl-5-fluoro-4-imino-1-(4-methoxyphenylsulfonyl)-3,4-dihydropyrimidin-2(1H)-one], for which the pest or weed control at 100 ppm in series [1] and in series [2] was 0 to 25% in each case.

Take `Cn1c(=N)c(F)cn(S(=O)(=O)c2ccccc2)c1=O` [Compound 1, 1-Benzenesulfonyl-5-fluoro-4-imino-3-methyl-3,4-dihydro-1H-pyrimidin-2-one]: the melting point (in general, the temperature, or range, at which the solid turns liquid) amounted to 144 °C. In addition, the pest or weed control – broadly, the degree to which the test organism was suppressed or injured, in per cent – at 100 ppm in series [1] was 76 to 100%. Moreover, the pest or weed control at 100 ppm in series [2] was in the range of 76 to 100%.

The compound `CCn1c(=N)c(F)cn(S(=O)(=O)c2ccc(OC)cc2)c1=O` [Compound 8] showed a melting point of 107 to 111 °C. In series [1], this compound had a pest or weed control at 100 ppm of 51 to 75%. The same compound gave a pest or weed control at 100 ppm in series [2] of 0 to 25%.

With `Cn1c(=N)c(F)cn(S(=O)(=O)c2ccc(Cl)cc2)c1=O` [Compound 4], the melting point is 147 to 150 °C. Also, the pest or weed control at 100 ppm in series [1] was 76 to 100%. In series [2], this compound gave a pest or weed control at 100 ppm of 76 to 100%.

In turn, `COc1ccc(S(=O)(=O)n2cc(F)c(=N)n(C)c2=O)cc1` [Compound 3] gave a melting point of 158 to 162 °C. In series [1], the pest or weed control at 100 ppm lay in the range of 76 to 100%. In addition, the pest or weed control at 100 ppm in series [2] was 76 to 100%.

`CCn1c(=N)c(F)cn(S(=O)(=O)c2c(Cl)cccc2Cl)c1=O` [Compound 9] returned a melting point of 182 to 185 °C. Besides, the pest or weed control at 100 ppm in series [1] lay in the range of 76 to 100%. In series [2], this compound showed a pest or weed control at 100 ppm of 0 to 25%.

In the case of `Cn1c(=N)c(F)cn(S(=O)(=O)c2cccs2)c1=O` [Compound 2], the melting point lay within 136 to 139 °C. Besides, the pest or weed control at 100 ppm in series [1] lay in the range of 76 to 100%. In series [2], this compound gave a pest or weed control at 100 ppm of 76 to 100%.

As to `CCn1c(=N)c(F)cn(S(=O)(=O)c2ccc(Cl)cc2)c1=O` [Compound 7], the melting point fell in the range of 165 to 168 °C. Further, the pest or weed control at 100 ppm in series [1] fell in the range of 76 to 100%. The pest or weed control at 100 ppm in series [2] fell in the range of 51 to 75%.

For the compound `CCn1c(=N)c(F)cn(S(=O)(=O)c2ccccc2)c1=O` [Compound 6, 1-benzenesulfonyl-5-fluoro-4-imino-3-ethyl-3,4-dihydro-1H-pyrimidin-2-one], the melting point was in the range of 163 to 166 °C. In series [1], this compound had a pest or weed control at 100 ppm of 0 to 25%. In series [2], this compound registered a pest or weed control at 100 ppm of 0 to 25%.
